Like-named read-outs stand apart in the source and are kept apart here.
Assay: Evaluation of solubility of thiazolothiazole derivatives in organic solvents
Type: physicochemical
Conditions: for solubility: organic solvent or mixture, thermodynamic from solid, 25° C., else heated to boiling temperature, naked eye
Description: In the present exemplary embodiment, the term “dissolve” refers to a state in which, after the thiazolothiazole derivative according to the present exemplary embodiment is added to an organic solvent, no crystal is observed by observation with the naked eye. The term “high solubility” or “good solubility” refers to such properties that the thiazolothiazole derivative dissolves at the boiling temperature of the organic solvent.
The solubility test is performed as follows:
10 mg (1.0 weight %) of an exemplary compound to be tested is dissolved in 1 ml of a solvent (such as dichlorobenzene, monochlorobenzene, chloroform, THF, toluene or xylene). […] The degree of dissolution is observed with the naked eye.
A: dissolves even when heating is not conducted
B: completely dissolves when heating is conducted
C: a large proportion thereof dissolves when heating is conducted
D: a small proportion thereof dissolves when heating is conducted

[1] = 10 mg (1.0 weight %) in 1 ml THF, read-out: Solubility THF
[2] = 10 mg (1.0 weight %) in 1 ml chloroform, read-out: Solubility Chloroform
[3] = 10 mg (1.0 weight %) in 1 ml dichlorobenzene, read-out: Solubility Dichlorobenzene
[4] = 10 mg (1.0 weight %) in 1 ml monochlorobenzene, read-out: Solubility Monochlorobenzene
[5] = 10 mg (1.0 weight %) in 1 ml toluene, read-out: Solubility Toluene
[6] = 10 mg (1.0 weight %) in 1 ml xylene, read-out: Solubility Xylene

| Compound | solubility [1] [µg/mL] | solubility [2] [µg/mL] | solubility [3] [µg/mL] | solubility [4] [µg/mL] | solubility [5] [µg/mL] | solubility [6] [µg/mL] | Solubility in organic solvents (in words) (organic solvents, general statement) |
| --- | --- | --- | --- | --- | --- | --- | --- |
| c1csc(-c2ccc(-c3nc4sc(-c5ccc(-c6cccs6)s5)nc4s3)s2)c1 [Compound 3, reference compound] | < 10000 | < 10000 | < 10000 | < 10000 | < 10000 | < 10000 | hardly dissolves |
| CCCCOc1ccc(-c2ccc(-c3nc4sc(-c5ccc(-c6ccc(OCCCC)cc6)s5)nc4s3)s2)cc1 [Exemplary Compound (11)] | < 10000 | < 10000 | < 10000 | < 10000 | < 10000 | < 10000 | – |
| CC(C)(C)c1ccc(-c2ccc(-c3nc4sc(-c5ccc(-c6ccc(C(C)(C)C)cc6)s5)nc4s3)s2)cc1 [Exemplary Compound (15)] | < 10000 | < 10000 | < 10000 | < 10000 | < 10000 | < 10000 | – |
| CCCCc1ccc(-c2ccc(-c3nc4sc(-c5ccc(-c6ccc(CCCC)cc6)s5)nc4s3)s2)cc1 [Exemplary Compound (1)] | < 10000 | < 10000 | < 10000 | < 10000 | < 10000 | < 10000 | – |
| CCCCCCCCc1ccc(-c2cc(C)c(-c3nc4sc(-c5sc(-c6ccc(CCCCCCCC)cc6)cc5C)nc4s3)s2)cc1 [Exemplary Compound (8)] | > 10000 | < 10000 | > 10000 | > 10000 | < 10000 | < 10000 | – |

The next lines start with the values.

| solubility [1] [µg/mL] | solubility [2] [µg/mL] | solubility [3] [µg/mL] | solubility [4] [µg/mL] | solubility [5] [µg/mL] | solubility [6] [µg/mL] | Solubility in organic solvents (in words) (organic solvents, general statement) | Compound |
| --- | --- | --- | --- | --- | --- | --- | --- |
| > 10000 | > 10000 | > 10000 | > 10000 | > 10000 | > 10000 | – | CCCCCCCCCCCCc1ccc(-c2cc(CCCCCCCC)c(-c3nc4sc(-c5sc(-c6ccc(CCCCCCCCCCCC)cc6)cc5CCCCCCCC)nc4s3)s2)cc1 [Exemplary Compound (28)] |
| > 10000 | > 10000 | > 10000 | > 10000 | > 10000 | > 10000 | – | CCCCCCCCc1cc(-c2ccc(CCCC)cc2)sc1-c1nc2sc(-c3sc(-c4ccc(CCCC)cc4)cc3CCCCCCCC)nc2s1 [Exemplary Compound (25)] |
| > 10000 | > 10000 | > 10000 | > 10000 | > 10000 | > 10000 | – | CCCCCCCCc1ccc(-c2cc(CCCCCCCC)c(-c3nc4sc(-c5sc(-c6ccc(CCCCCCCC)cc6)cc5CCCCCCCC)nc4s3)s2)cc1 [Exemplary Compound (27)] |
